Where two headings read alike, the source gives them in different places. Marks after values point to notes of the source that are not given here.
What was measured:
[1] = cited from earlier work
[2] = Cabotegravir and rilpivirine concentrations in plasma and CSF by HPLC-MS/MS; format: in vivo, HIV-infected adults; settings: for Total plasma drug / Total CSF drug / Unbound plasma drug / Total CSF/total plasma (%) / Kp: median (minimum–maximum); for Total CSF/total plasma (%) / Kp: paired samples; for Kp: human, CSF/plasma, intramuscular, Total CSF/total plasma (%)
[3] = system: WT HIV-1; settings: cited from earlier work; for in vitro EC50 for WT HIV-1: ref 10 (cabotegravir), 37 (rilpivirine)
[4] = system: plasma proteins; settings: cited from earlier work
[5] = Phase 1, monthly IM LA, cited from earlier work
[6] = system: P-glycoprotein; settings: in vitro; ref 42 (cabotegravir), 43 (rilpivirine); cited from earlier work
[7] = system: breast cancer resistance protein (BCRP); settings: in vitro; ref 42 (cabotegravir), 43 (rilpivirine); cited from earlier work
[8] = cited from earlier work; for reported CSF distribution: other NNRTIs
[9] = Q4W, n = 3, 7 ± 3 days after injection
[10] = Q8W, n = 15, 7 ± 3 days after injection

| Compound | protein binding in CSF [1] | median CSF level, fold above in vitro EC50 for WT HIV-1 ([2]; Q4W group) [fold] | Total CSF/total plasma (%) ([2]; Q4W, n = 3) | median CSF level, fold above in vitro EC50 for WT HIV-1 ([2]; Q8W group) [fold] | Total CSF/total plasma (%) ([2]; Q8W, n = 13) | Kp ([2]; Q4W, n = 3) | Kp ([2]; Q8W, n = 13) | in vitro EC50 for WT HIV-1 [3] [ng/mL] | bound to plasma proteins [4] [%] | time to maximum plasma concentrations [5] | substrate for P-glycoprotein [6] | substrate for breast cancer resistance protein (BCRP) [7] | reported CSF distribution [8] [%] | further results |
| --- | --- | --- | --- | --- | --- | --- | --- | --- | --- | --- | --- | --- | --- | --- |
| O=C(NCc1c(F)cc(F)cc1F)c1cn2c(c(O)c1=O)C(=O)N1[C@H]3CC[C@H](C3)O[C@@H]1C2 [bictegravir] | predominantly protein-bound |  |  |  |  |  |  |  |  |  |  |  |  |  |
| C[C@H]1CO[C@@H]2Cn3cc(C(=O)NCc4ccc(F)cc4F)c(=O)c(O)c3C(=O)N12 [cabotegravir] |  | 127 | 0.344 (0.312–0.421) % | 106 | 0.304 (0.218–0.449)^c % | 0.003 | 0.0034 | 0.10 | > 99.8 | approximately 1 week | substrate | substrate |  | Total plasma drug ([2]; Q4W (cabotegravir LA 400 mg + rilpivirine LA 600 mg IM every 4 weeks), n = 3, 7 ± 3 days after injection): 3.02 (2.37–5.10) μg/mL; Total CSF drug [2, 9]: 0.0127 (0.0082–0.0159) μg/mL; Unbound plasma drug [2, 9]: 0.0019 (0.0014–0.0698) μg/mL; Total plasma drug ([2]; Q8W (cabotegravir LA 600 mg + rilpivirine LA 900 mg IM every 8 weeks), n = 15, 7 ± 3 days after injection): 3.92 (1.30–6.41) μg/mL; Total CSF drug ([2]; Q8W, n = 13, 7 ± 3 days after injection): 0.0106 (0.0053–0.0245)^c μg/mL; Unbound plasma drug [2, 10]: 0.0047 (0.0007–0.0220) μg/mL; EC50 ([3]; read-out: EC50 for WT HIV-1 clade B): 0.25 nM; maximum plasma concentrations (geometric mean) ([5]; after the fourth dose of cabotegravir): 2.2 to 4.4 µg/mL |
| C[C@@H]1CCO[C@H]2Cn3cc(C(=O)NCc4ccc(F)cc4F)c(=O)c(O)c3C(=O)N12 [dolutegravir] |  |  |  |  |  |  |  |  |  |  |  |  |  | CSF inhibitory quotient (ratio of drug concentration to EC50), median [8]: 66–90 fold; CSF-to-plasma ratio ([8]; oral administration at 50 mg once daily): 0.41% |
| O=C1Nc2ccc(Cl)cc2[C@@](C#CC2CC2)(C(F)(F)F)O1 [efavirenz] |  |  |  |  |  |  |  |  |  |  |  |  | 0.5 |  |
| Cc1cc(C#N)cc(C)c1Oc1nc(Nc2ccc(C#N)cc2)nc(N)c1Br [etravirine] | predominantly protein-bound |  |  |  |  |  |  |  |  |  |  |  | 1 |  |
| Cc1cc(/C=C/C#N)cc(C)c1Nc1ccnc(Nc2ccc(C#N)cc2)n1 [rilpivirine] |  | 6 | 1.32% | 7 | 1.07% | 0.0107 | 0.0132 | 0.27 | 99.7 | approximately 1 week | not a substrate | not a substrate |  | Total plasma drug [2, 9]: 134 (83.0–187) ng/mL; Total CSF drug ([2]; Q4W, n = 3): 1.67 (1.40–2.47) ng/mL; Total CSF/total plasma (%) ([2]; Q4W, n = 3, listed as Rilpivirine): 1.32 (1.25–1.69) %; Total CSF/total plasma (%) ([2]; Q8W, n = 13, listed as Rilpivirine): 1.07 (NQ to 1.52)^c^, d %; Total plasma drug [2, 10]: 192 (91.7–378) ng/mL; plasma concentration in the participant with non-quantifiable CSF level ([2]; single participant): 117 ng/mL; CSF concentration in the one participant with non-quantifiable level ([2]; single participant, Q8W, not quantifiable): under 1 ng/mL; maximum plasma concentrations (geometric mean) ([5]; after the second dose of rilpivirine): 0.126 to 0.168 µg/mL; CSF-to-plasma ratio ([8]; 25 mg administered orally for 60 days): 1.4% |

From article PMC7021098 (Journal of Antimicrobial Chemotherapy, 2019)
